What was measured:
Format in all cases: cell-based
E. coli ATCC 25922 mcr-1 = details: CLSI microbroth dilution, Mueller Hinton broth, 18 h at 37 °C, visual read-out, three technical replicates; mcr-1 colistin resistance plasmid
Protocol: (§1) The antibacterial activities of relacidine A (3a) and B (4a), along with diastereomers 3b and 4b–d and relacidamide (5), were assessed using a standard microbroth dilution assay to establish minimum inhibitory concentration (MIC) values against a panel of Gram-negative bacteria (Table 1). The MIC values measured for synthetic relacidine A (3a) and B (4a) agree well with those previously published.[9] […] Relacidine A (3a) and B (4a), as well as relacidamide (5), were further tested against a panel of colistin-resistant A. baumannii clinical isolates, which confirmed their ability to prevent the growth of colistin-resistant isolates (Supplemental Table S2). […] Also of interest was the finding that while relacidine B (4a) induced <1% hemolysis, a substitution of either the L-Ala or L-Ser to D-Ala or D-Ser increased hemolytic activity to 8–12%. […] The greater hydrolytic stability of relacidine B would appear to be attributable to the increased steric bulk of the Ala side chain next to the ester linkage (compared with the methylene of Gly in relacidine A), which may hinder the nucleophilic attack of water at the ester carbonyl.
(§2) Colistin sulfate was purchased from Activate Scientific. Kanamycin monosulfate was purchased from MP Biomedicals. E. coli ATCC 25922, S. aureus USA300 (ATCC BAA1717), and K. pneumoniae ATCC 13883 belong to the American Type Culture Collection (ATCC). P. aeruginosa PAO1 was kindly provided by L.H.C. Quarles Van Ufford of Utrecht University, Utrecht, The Netherlands. E. coli ATCC 25922 MCR-1 was transfected in-house using the pGDP2-MCR1 plasmid kindly provided by Yong-Xin Li of The University of Hong Kong, Hong Kong, China. Sheep blood agar plates (ref. PB5039A) were purchased from Thermo Scientific. Tryptic soy broth (ref. 02-200-500) was purchased from Scharlab. Mueller-Hinton broth (ref. X927.1) was purchased from Carl Roth. Polypropylene 96-wells plates (ref. 3879) were purchased from Corning.
(§3) MICs were determined according to Clinical and Standards Laboratory Institute (CLSI) guidelines. Blood agar plates were inoculated with glycerol stocks of E. coli ATCC 25922, K. pneumoniae ATCC 13883, P. aeruginosa PAO1, and S. aureus USA300. The inoculated agar plates were then incubated for 16 h at 37 °C. Individually grown colonies were subsequently used to inoculate 5 mL aliquots of tryptic soy broth (TSB) that were then incubated at 37 °C with shaking at 220 rpm. E. coli 25922 MCR-1 glycerol stock was used to inoculate 5 mL of TSB supplemented with kanamycin that was then incubated for 16 h at 37 °C with shaking at 220 rpm. The next day, the culture was diluted 100-fold in TSB supplemented with kanamycin and incubated at 37 °C with shaking at 220 rpm. In parallel, the lipopeptide antibiotic DMSO stocks to be assessed were serially diluted with Mueller Hinton broth (MHB) in polypropylene 96-well plates (50 μL in each well). Colistin sulfate stocks were dissolved in water before being diluted with MHB. Aliquots of the inoculated TSB were incubated until an OD600 of around 0.5 was reached. The bacterial suspensions were then diluted with MHB (2 × 10^5 cfu mL^–1) and added to the microplates containing the test compounds (50 μL to each well). The well plates were sealed with an adhesive membrane, and after 18 h of incubation at 37 °C with shaking at 600 rpm, the wells were visually inspected for bacterial growth. MIC values reported are based on three technical replicates and defined as the lowest concentration of the compound that prevented visible growth of bacteria.

E. coli ATCC 25922 = details: CLSI microbroth dilution, Mueller Hinton broth, 18 h at 37 °C, visual read-out, three technical replicates
Protocol: as §1, §2, §3

K. pneumoniae ATCC 13883 = details: CLSI microbroth dilution, Mueller Hinton broth, 18 h at 37 °C, visual read-out, three technical replicates
Protocol: as §1, §2, §3

P. aeruginosa PAO1 = details: CLSI microbroth dilution, Mueller Hinton broth, 18 h at 37 °C, visual read-out, three technical replicates
Protocol: as §1, §2, §3

S. aureus USA300 = details: CLSI microbroth dilution, Mueller Hinton broth, 18 h at 37 °C, visual read-out, three technical replicates
Protocol: as §1, §2, §3

sheep red blood cells = assay: Hemolytic assay; details: 128 μg/mL, 1 h at 37 °C, sheep red blood cells in PBS with 0.002% Tween20, read-out 415 nm, relative to 0.1% Triton X-100, triplicate
Protocol: Figure S2. Hemolytic activity of compounds 3a-5 at 128 µg/mL and 1 h incubation against sheep red […]
under the same conditions.
Experiments were performed in triplicate and Triton X-100 used as a positive control. Red blood cells from defibrinated sheep blood obtained from Thermo Fisher were centrifuged (400 g for 15 min at 4°C) and washed with Phosphate-Buffered Saline (PBS) containing 0.002% Tween20 (buffer) five times. Then, the red blood cells were normalized to obtain a positive control read-out between 2.5 and 3.0 at 415 nm to stay within the linear range with the maximum sensitivity. A serial dilution of the compounds (128 – 1 µg/mL, 75 µL) was prepared in a 96-well polypropylene plate. The outer border of the plate was filled with 75 µL buffer. Each plate contained a positive control (0.1% Triton-X final concentration, 75 µL) and a negative control (buffer, 75 µL) in triplicate. The normalized blood cells (75 µL) were added and the plates were incubated at 37 °C for 1 h while shaking at 500 rpm. A flat - bottom polystyrene plate with 100 µL buffer in each well was prepared. […] The values obtained from a read-out at 415 nm were corrected for background (negative control) and transformed to a percentage relative to the positive […]

With colistin [reference compound] the “MIC E. coli ATCC 25922 mcr-1” value (E. coli ATCC 25922 mcr-1) was 4 µg/mL, the “MIC E. coli ATCC 25922” value (E. coli ATCC 25922) was 1 µg/mL and the “MIC K. pneumoniae ATCC 13883” value (K. pneumoniae ATCC 13883) was 0.25 to 0.5 µg/mL. For the same substance, the “MIC P. aeruginosa PAO1” value (P. aeruginosa PAO1) was 1 µg/mL, the “MIC S. aureus USA300” value (S. aureus USA300) was greater than 32 µg/mL and the hemolysis (sheep red blood cells) was less than 0.1%.

— article PMC10111413 (ACS Infectious Diseases, 2023)
